Source: patent US20250368633A1, “AZEPINE FUSED RING COMPOUND AS RIPK1 INHIBITOR AND USE THEREOF” (ARTIVILA BIOPHARMA, priority 2022, published 2025)

Legend:
U937 cells = assay: Inhibition rate of compound (1 μM) on necroptosis of U937 cells (TSZ-induced, CellTiter-Glo); assay type: cell-based; conditions: TSZ (hTNF-α, SM-164, Z-VAD-FMK) 20 hours
Procedure, shortened: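 U937 cells were pretreated 15 min with compound, then necroptosis was triggered with TSZ (Z-VAD-FMK, hTNF-α, SM-164) for 20 h at 37° C. Viability was read as ATP by CellTiter-Glo luminescence, and inhibition (%) was taken relative to no-TSZ and TSZ-only wells.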

RIPK1 kinase = biological target: T1, RIPK1 kinase (Homo sapiens, UniProt Q13546); assay: In vitro RIPK1 kinase activity IC50 assay (ADP-Glo); assay type: biochemical; conditions: ATP 10 μM; MBP substrate 100 μg/mL; 8 concentration points; read-out: IC50 range of compounds for RIPK1 kinase activity
T1 construct: purchased Promega VA7593
T1 sequence (Q13546 1-671): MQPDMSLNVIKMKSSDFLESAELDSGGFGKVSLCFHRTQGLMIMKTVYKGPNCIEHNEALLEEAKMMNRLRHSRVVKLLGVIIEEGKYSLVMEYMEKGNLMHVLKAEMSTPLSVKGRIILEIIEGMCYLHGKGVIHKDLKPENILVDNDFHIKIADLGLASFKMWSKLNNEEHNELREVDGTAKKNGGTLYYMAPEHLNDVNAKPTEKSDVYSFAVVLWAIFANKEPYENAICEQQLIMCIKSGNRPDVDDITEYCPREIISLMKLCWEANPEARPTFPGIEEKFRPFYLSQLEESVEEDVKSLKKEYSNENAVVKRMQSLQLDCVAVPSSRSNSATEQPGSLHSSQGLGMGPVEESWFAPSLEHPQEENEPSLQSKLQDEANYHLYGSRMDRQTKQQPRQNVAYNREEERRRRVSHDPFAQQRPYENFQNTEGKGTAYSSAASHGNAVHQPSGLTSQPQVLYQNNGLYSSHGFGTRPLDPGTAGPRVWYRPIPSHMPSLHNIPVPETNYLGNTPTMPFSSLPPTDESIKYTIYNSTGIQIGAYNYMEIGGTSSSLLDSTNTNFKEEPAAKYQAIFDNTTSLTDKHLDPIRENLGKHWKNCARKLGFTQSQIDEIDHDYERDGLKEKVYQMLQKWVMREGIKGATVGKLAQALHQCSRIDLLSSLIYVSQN
Description: RIPK1 kinase activity was assayed using the ADP-Glo assay and RIPK1 kinase reaction system (Promega, catalog number: VA7593). The RIPK1 kinase activity assay was performed according to the Promega kit manual.
The experimental method was briefly described as below. The concentration of RIPK1 kinase in the RIPK1 kinase reaction system was determined by kinase titration and S/B10. The compound was diluted with 1× kinase buffer D (1% DMSO), 1 μL of 1 mM compound DMSO stock solution was added to 19 μL 1× kinase buffer D, and the compound was serially diluted with 1× kinase buffer D at a ratio of 1:5, for a total of 8 concentration points, and a control with the same DMSO volume was set. RIPK1 kinase was diluted with 1× kinase buffer D. 2.5×ATP/substrate was diluted with 1× kinase buffer D. The final concentration of ATP in the kinase reaction system was 10 μM. The final concentration of MBP substrate was 100 μg/mL. 1 μL of diluted compound and 2 μL of diluted RIPK1 kinase were mixed, incubated at room temperature for 15 minutes, 2 μL of 2.5×ATP/substrate was added, mixed, and incubated at room temperature for 1 hour. 5 μL ADP-Glo reagent was added to each well and incubated at room temperature for 1 hour. 10 μL ADP detection reagent was added to each well and incubated at room temperature for another 0.5-1 hour. The chemiluminescent signal was read with a microplate reader and the kinase activity inhibition rate was calculated. IC50 was obtained by fitting the nonlinear regression curve log [inhibitor] vs. response-variable slope (four parameters) in GraphPad Prism.

Row | Structure (SMILES) | Inhibition rate range of compounds (1 μM) on U937 cell necroptosis (U937 cells) | IC50 (RIPK1 kinase)
1 | CN1C(=O)[C@@H](NC(=O)C(=O)NCCc2ccc(F)cc2)COc2ccc(C#CCCO)cc21 [Example 35, (S)—N^1-(4-fluorophenethyl)-N^2-(7-(4-hydroxybut-1-yn-1-yl)-5-methyl-4-oxo-2,3,4,5-tetrahydrobenzo[b][1,4]oxazepin-3-yl)oxalamide] | A (A: ≥90%) | < 100 nM
2 | CN1C(=O)[C@@H](NC(=O)C(=O)NCCc2cc(F)cc(F)c2)COc2ccc(C#CCCO)cc21 [Example 36, (S)—N^1-(3,5-difluorophenethyl)-N^2-(7-(4-hydroxybut-1-yn-1-yl)-5-methyl-4-oxo-2,3,4,5-tetrahydrobenzo[b][1,4]oxazepin-3-yl)oxalamide] | A (A: ≥90%) | < 100 nM
3 | CN1C(=O)[C@@H](NC(=O)C(=O)NCc2cccc(F)c2)COc2ccc(C#CCCO)cc21 [Example 39, (S)—N^1-(3-fluorobenzyl)-N^2-(7-(4-hydroxybut-1-yn-1-yl)-5-methyl-4-oxo-2,3,4,5-tetrahydrobenzo[b][1,4]oxazepin-3-yl)oxalamide] | A (A: ≥90%) | < 100 nM
4 | CN1C(=O)[C@@H](NC(=O)C(=O)NCc2ccc(F)cc2)COc2ccc(C#CCCO)cc21 [Example 40, (S)—N^1-(4-fluorobenzyl)-N^2-(7-(4-hydroxybut-1-yn-1-yl)-5-methyl-4-oxo-2,3,4,5-tetrahydrobenzo[b][1,4]oxazepin-3-yl)oxalamide] | A (A: ≥90%) | < 100 nM
5 | CN1C(=O)[C@@H](NC(=O)C(=O)NCCc2cccc(F)c2)COc2ccc(C#CC(C)(C)O)cc21 [Example 42, (S)—N^1-(3-fluorophenethyl)-N^2-(7-(3-hydroxy-3-methylbut-1-yn-1-yl)-5-methyl-4-oxo-2,3,4,5-tetrahydrobenzo[b][1,4]oxazepin-3-yl)oxalamide] | A (A: ≥90%) | < 100 nM
6 | CN1C(=O)[C@@H](NC(=O)C(=O)NCCc2ccccc2)COc2ccc(C#CC3(O)COC3)cc21 [Example 43, (S)—N^1-(7-((3-hydroxyoxetan-3-yl)ethynyl)-5-methyl-4-oxo-2,3,4,5-tetrahydrobenzo[b][1,4]oxazepin-3-yl)-N^2-phenethyloxalamide] | A (A: ≥90%) | < 100 nM
7 | CN1C(=O)[C@@H](NC(=O)C(=O)NCCc2ccccc2)COc2ccc(C#CC3(O)CCCCC3)cc21 [Example 44, (S)—N^1-(7-((1-hydroxycyclohexyl)ethynyl)-5-methyl-4-oxo-2,3,4,5-tetrahydrobenzo[b][1,4]oxazepin-3-yl)-N^2-phenethyloxalamide] | A (A: ≥90%) | < 100 nM
8 | C/C(C#Cc1ccc2c(c1)N(C)C(=O)[C@@H](NC(=O)C(=O)NCCc1ccccc1)CO2)=C/CO [Example 45, (S,Z)-N^1-(7-(5-hydroxy-3-methylpent-3-en-1-yn-1-yl)-5-methyl-4-oxo-2,3,4,5-tetrahydrobenzo[b][1,4]oxazepin-3-yl)-N^2-phenethyloxalamide] | A (A: ≥90%) | < 100 nM
9 | CN1C(=O)[C@@H](NC(=O)C(=O)NCCc2ccccc2)COc2ccc(C#CCN3CCC(O)C3)cc21 (stereo partly drawn) [Example 46, N^1-((3S)-7-(3-(3-hydroxypyrrolidin-1-yl)prop-1-yn-1-yl)-5-methyl-4-oxo-2,3,4,5-tetrahydrobenzo[b][1,4]oxazepin-3-yl)-N^2-phenethyloxalamide] | A (A: ≥90%) | < 100 nM
10 | CN1C(=O)[C@@H](NC(=O)C(=O)NCCc2ccccc2)COc2ccc(C#CCN3CCC(=O)CC3)cc21 [Example 47, (S)—N^1-(5-methyl-4-oxo-7-(3-(4-oxopiperidin-1-yl)prop-1-yn-1-yl)-2,3,4,5-tetrahydrobenzo[b][1,4]oxazepin-3-yl)-N^2-phenethyloxalamide] | A (A: ≥90%) | < 100 nM
11 | CN1C(=O)[C@@H](NC(=O)C(=O)NCCc2ccccc2)COc2ccc(C#CCN3CCOCC3)cc21 [Example 48, (S)—N^1-(5-methyl-7-(3-morpholinoprop-1-yn-1-yl)-4-oxo-2,3,4,5-tetrahydrobenzo[b][1,4]oxazepin-3-yl)-N^2-phenethyloxalamide] | A (A: ≥90%) | < 100 nM
12 | CN1C(=O)[C@@H](NC(=O)C(=O)NCCc2ccccc2)COc2ccc(C#CCCN)cc21 [Example 50, (S)—N^1-(7-(4-aminobut-1-yn-1-yl)-5-methyl-4-oxo-2,3,4,5-tetrahydrobenzo[b][1,4]oxazepin-3-yl)-N^2-phenethyloxalamide] | A (A: ≥90%) | < 100 nM
13 | CN1C(=O)[C@@H](NC(=O)C(=O)NCCc2ccccc2)COc2ccc(C#CCCNS(C)(=O)=O)cc21 [Example 51, (S)—N^1-(5-methyl-7-(4-(methylsulfonamido)but-1-yn-1-yl)-4-oxo-2,3,4,5-tetrahydrobenzo[b][1,4]oxazepin-3-yl)-N^2-phenethyloxalamide] | A (A: ≥90%) | < 100 nM
14 | COCC#Cc1ccc2c(c1)N(C)C(=O)[C@@H](NC(=O)C(=O)NCCc1ccccc1)CO2 [Example 52, (S)—N^1-(7-(3-methoxyprop-1-yn-1-yl)-5-methyl-4-oxo-2,3,4,5-tetrahydrobenzo[b][1,4]oxazepin-3-yl)-N^2-phenethyloxalamide] | A (A: ≥90%) | < 100 nM
15 | CN1C(=O)C(NC(=O)C(=O)NCCc2ccccc2)CCc2ccc(Br)cc21 (stereo not shown) [Example 61, N^1-(8-bromo-1-methyl-2-oxo-2,3,4,5-tetrahydro-1H-benzo[b]azepin-3-yl)-N^2-phenethyloxalamide] | A (A: ≥90%) | < 100 nM
16 | CN1C(=O)C(NC(=O)C(=O)NCCc2ccccc2)CCc2ccc(C#CC3CC3)cc21 (stereo not shown) [Example 62, N^1-(8-(cyclopropylethynyl)-1-methyl-2-oxo-2,3,4,5-tetrahydro-1H-benzo[b]azepin-3-yl)-N^2-phenethyloxalamide] | A (A: ≥90%) | < 100 nM
17 | CN1C(=O)C(NC(=O)C(=O)NCCc2ccccc2)CCc2ccc(C#CCCO)cc21 (stereo not shown) [Example 65, N^1-(8-(4-hydroxybut-1-yn-1-yl)-1-methyl-2-oxo-2,3,4,5-tetrahydro-1H-benzo[b]azepin-3-yl)-N^2-phenethyloxalamide] | A (A: ≥90%) | < 100 nM
18 | CN1C(=O)C(NC(=O)C(=O)NCCc2ccccc2)CCc2ccc(C#CC3CCNCC3)cc21 (stereo not shown) [Example 66, N^1-(1-methyl-2-oxo-8-(piperidin-4-ylethynyl)-2,3,4,5-tetrahydro-1H-benzo[b]azepin-3-yl)-N^2-phenethyloxalamide] | A (A: ≥90%) | < 100 nM
19 | CN1C(=O)[C@@H](NC(=O)C(=O)NCCc2ccccc2)COc2ccc(C#CC3CCN(CC#N)CC3)cc21 [Example 74, (S)—N^1-(7-((1-(cyanomethyl)piperidin-4-yl)ethynyl)-5-methyl-4-oxo-2,3,4,5-tetrahydrobenzo[b][1, 4]oxazepin-3-yl)-N^2-phenethyloxalamide] | A (A: ≥90%) | < 100 nM
20 | CN1C(=O)[C@@H](NC(=O)C(=O)NCCc2ccccc2)COc2ccc(C#CC3COC3)cc21 [Example 76, (S)—N^1-(5-methyl-7-(oxetan-3-ylethynyl)-4-oxo-2,3,4,5-tetrahydrobenzo[b][1,4]oxazepin-3-yl)-N^2-phenethyloxalamide] | A (A: ≥90%) | < 100 nM
